Series [1] can be described thus: Drug loading into MAG-C cationic liposomes by HPLC. The series is classed as physicochemical. Conditions: 3 mol % drug. On the procedure: The influence of MAG-C on the efficiency of loading chemotherapeutic agents (hydrophilic and lipophilic) in cationic liposomes was evaluated by HPLC. […] The inclusion of PEG in MAG-C cationic liposomes improved incorporation of vinblastine sulfate from […]. We also evaluated the effect of MAG-C on the incorporation efficiency of the hydrophilic drug, dacarbazine at 3 mol %.

The test system of series [2] is B16-F10 melanoma tumor. The settings on record: 1.35 mg/kg.
Series [3] has as its system B16-F10 melanoma metastasis. Kind of series: Tumor metastases (melanin pigmentation, pleural cavity).
[4] abbreviates: cationic liposomes without MAG-C.

Where a name gives a salt, the structure may show the parent alone.

Take `CC[C@]1(O)C[C@@H]2CN(CCc3c([nH]c4ccccc34)[C@@](C(=O)OC)(c3cc4c(cc3OC)N(C)[C@H]3[C@@](O)(C(=O)OC)[C@H](OC(C)=O)[C@]5(CC)C=CCN6CC[C@]43[C@@H]65)C2)C1` [vinblastine sulfate]: the “incorporation (loading) efficiency” value in series [1] (cationic liposomes with 2.5 mg/ml MAG-C (SPION)) was “no further decrease was observed”; in series [1] (setting [4]), 3273.6%. In addition, the “tumor volumes compared to the untreated control group” value in series [2] is given as “no significant difference in the tumor volumes”. Also, the “number of tumor nodules in the livers” value in series [3] (compared to the saline control) was “less”. In addition, the “mice with evidence of metastasis within the pleural cavity” value in series [3] (free drug) is given as 5/5.

Regarding `COc1cc([C@@H]2c3cc4c(cc3[C@@H](O[C@@H]3O[C@@H]5CO[C@@H](C)O[C@H]5[C@H](O)[C@H]3O)[C@H]3COC(=O)[C@H]23)OCO4)cc(OC)c1O` [etoposide], the results for the “incorporation (loading) efficiency” value in series [1] (MAG-C cationic liposomes with PEG included), in series [1] (cationic liposomes with 0.5 mg/ml MAG-C (SPION)) and in series [1] (setting [4]) were 7873.73%, “did not alter the incorporation efficiency” and 7876.03%, respectively.

The values are drawn from patent publication US20130323165A1, “Magnetic Nanoplatforms for Theranostic and Multi-Modal Imaging Applications” (NORTHEASTERN UNIVERSITY, priority 2010, published 2013).
